Reference: ChEMBL document CHEMBL4507319 (2021)

Key:
[1] = biological target: CDK4/Cyclin D3 (Homo sapiens) (UniProt P11802+P30281); test: CDK4/cyclinD3(h) Eurofins kinase panel; assay type: protein-complex assay; settings: Compound concentration 1.0 uM
[2] = biological target: T1, Ephrin type-A receptor 1 (Homo sapiens) (UniProt P21709); test: EphA1(h) Eurofins kinase panel; settings: Compound concentration 1.0 uM
T1 sequence (whole entry): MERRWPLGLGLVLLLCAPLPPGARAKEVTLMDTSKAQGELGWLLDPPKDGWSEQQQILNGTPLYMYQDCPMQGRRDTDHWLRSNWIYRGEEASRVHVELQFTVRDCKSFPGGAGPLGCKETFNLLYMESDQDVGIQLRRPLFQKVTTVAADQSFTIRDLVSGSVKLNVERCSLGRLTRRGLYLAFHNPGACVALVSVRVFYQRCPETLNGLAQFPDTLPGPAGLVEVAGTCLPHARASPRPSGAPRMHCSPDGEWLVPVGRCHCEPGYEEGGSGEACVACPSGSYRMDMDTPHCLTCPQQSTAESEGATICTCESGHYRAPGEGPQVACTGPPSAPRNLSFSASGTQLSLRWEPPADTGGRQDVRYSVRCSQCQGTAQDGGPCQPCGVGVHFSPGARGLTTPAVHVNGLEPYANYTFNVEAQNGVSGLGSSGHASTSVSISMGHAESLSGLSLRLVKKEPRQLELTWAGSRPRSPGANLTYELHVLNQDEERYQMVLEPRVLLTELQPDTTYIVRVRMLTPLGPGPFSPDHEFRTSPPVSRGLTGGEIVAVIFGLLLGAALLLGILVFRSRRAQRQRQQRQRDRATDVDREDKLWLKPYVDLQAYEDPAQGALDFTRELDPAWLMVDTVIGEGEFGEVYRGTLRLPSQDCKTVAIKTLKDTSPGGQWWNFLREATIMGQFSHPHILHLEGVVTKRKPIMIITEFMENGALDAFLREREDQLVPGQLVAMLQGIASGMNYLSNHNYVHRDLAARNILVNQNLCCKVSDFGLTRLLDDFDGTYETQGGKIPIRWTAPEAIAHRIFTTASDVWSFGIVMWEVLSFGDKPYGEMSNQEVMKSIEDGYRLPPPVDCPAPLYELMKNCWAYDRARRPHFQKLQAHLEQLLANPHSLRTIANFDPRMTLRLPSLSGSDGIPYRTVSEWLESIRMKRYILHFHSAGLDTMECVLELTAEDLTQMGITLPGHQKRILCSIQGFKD

[3] = biological target: Vascular endothelial growth factor receptor 2 (Homo sapiens) (UniProt P35968); test: KDR(h) Eurofins kinase panel; settings: Compound concentration 1.0 uM
[4] = biological target: T2, Tyrosine-protein kinase Mer (Homo sapiens) (UniProt Q12866); test: Mer(h) Eurofins kinase panel; settings: Compound concentration 1.0 uM
T2 sequence (whole entry): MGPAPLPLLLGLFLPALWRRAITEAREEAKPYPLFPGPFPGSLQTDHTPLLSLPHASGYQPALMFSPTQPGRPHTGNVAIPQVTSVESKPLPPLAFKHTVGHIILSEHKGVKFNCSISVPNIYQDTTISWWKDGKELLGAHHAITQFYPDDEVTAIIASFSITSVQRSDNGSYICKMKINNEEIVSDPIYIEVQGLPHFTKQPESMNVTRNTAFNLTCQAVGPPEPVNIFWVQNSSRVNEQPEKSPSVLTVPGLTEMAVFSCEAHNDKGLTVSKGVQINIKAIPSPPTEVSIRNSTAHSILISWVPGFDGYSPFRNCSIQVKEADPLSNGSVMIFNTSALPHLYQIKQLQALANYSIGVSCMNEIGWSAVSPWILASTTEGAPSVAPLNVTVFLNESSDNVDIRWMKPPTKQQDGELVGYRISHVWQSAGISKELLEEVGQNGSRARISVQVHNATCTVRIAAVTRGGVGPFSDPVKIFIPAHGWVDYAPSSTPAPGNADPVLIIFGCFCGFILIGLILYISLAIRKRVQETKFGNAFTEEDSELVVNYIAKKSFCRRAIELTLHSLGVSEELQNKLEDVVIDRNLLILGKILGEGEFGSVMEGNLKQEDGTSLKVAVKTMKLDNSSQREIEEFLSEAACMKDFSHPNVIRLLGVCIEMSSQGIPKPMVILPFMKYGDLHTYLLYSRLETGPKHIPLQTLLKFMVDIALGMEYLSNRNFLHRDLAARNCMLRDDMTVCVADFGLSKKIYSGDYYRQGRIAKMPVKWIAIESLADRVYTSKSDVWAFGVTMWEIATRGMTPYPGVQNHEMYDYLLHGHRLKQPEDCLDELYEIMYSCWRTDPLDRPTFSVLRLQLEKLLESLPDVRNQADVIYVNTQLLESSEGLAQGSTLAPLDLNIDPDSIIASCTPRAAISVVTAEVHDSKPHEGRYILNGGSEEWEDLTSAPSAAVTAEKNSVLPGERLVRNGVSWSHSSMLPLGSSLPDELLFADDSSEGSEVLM

[5] = biological target: T3, cGMP-dependent protein kinase 1 (Homo sapiens) (UniProt Q13976); test: PKG1alpha (h) Eurofins kinase panel; settings: Compound concentration 1.0 uM
T3 sequence (whole entry): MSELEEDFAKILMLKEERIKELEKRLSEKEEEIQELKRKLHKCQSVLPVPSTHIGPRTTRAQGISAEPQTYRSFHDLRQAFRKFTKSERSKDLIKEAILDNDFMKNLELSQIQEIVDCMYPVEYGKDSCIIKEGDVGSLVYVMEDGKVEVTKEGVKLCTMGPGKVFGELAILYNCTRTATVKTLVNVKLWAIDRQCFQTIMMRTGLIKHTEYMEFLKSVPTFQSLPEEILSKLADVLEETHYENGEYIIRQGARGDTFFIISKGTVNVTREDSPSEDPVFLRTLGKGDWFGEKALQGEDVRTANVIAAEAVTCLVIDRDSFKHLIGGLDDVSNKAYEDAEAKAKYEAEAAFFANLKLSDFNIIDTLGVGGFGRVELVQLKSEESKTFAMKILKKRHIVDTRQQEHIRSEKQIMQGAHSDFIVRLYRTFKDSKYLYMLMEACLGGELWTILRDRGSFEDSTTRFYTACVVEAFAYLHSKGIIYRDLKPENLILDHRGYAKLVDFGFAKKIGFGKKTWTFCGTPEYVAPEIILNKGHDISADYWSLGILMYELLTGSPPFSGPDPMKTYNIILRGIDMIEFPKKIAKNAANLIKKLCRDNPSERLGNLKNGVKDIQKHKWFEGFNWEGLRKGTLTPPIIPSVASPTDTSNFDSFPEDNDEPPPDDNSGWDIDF

U-251 = test: U251 cell line Proliferation assay; assay type: functional, Homo sapiens; settings: time 3 day
[6] = biological target: Mitogen-activated protein kinase 3 (Homo sapiens) (UniProt P27361); test: MAPK1(h) Eurofins kinase panel; settings: Compound concentration 1.0 uM
Sequence of Mitogen-activated protein kinase 3 (Homo sapiens) (P27361 whole entry, looked up): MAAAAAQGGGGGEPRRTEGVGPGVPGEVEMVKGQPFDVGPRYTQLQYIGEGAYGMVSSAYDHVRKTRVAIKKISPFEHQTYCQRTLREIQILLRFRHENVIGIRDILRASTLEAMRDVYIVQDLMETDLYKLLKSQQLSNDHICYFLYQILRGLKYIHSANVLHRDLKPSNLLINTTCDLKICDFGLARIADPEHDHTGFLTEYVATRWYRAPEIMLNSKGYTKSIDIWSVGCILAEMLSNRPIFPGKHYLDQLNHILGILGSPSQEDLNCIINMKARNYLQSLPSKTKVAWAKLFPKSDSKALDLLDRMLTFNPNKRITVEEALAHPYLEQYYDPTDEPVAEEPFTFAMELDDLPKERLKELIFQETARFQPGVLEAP

Sequence of Vascular endothelial growth factor receptor 2 (Homo sapiens) (P35968 whole entry): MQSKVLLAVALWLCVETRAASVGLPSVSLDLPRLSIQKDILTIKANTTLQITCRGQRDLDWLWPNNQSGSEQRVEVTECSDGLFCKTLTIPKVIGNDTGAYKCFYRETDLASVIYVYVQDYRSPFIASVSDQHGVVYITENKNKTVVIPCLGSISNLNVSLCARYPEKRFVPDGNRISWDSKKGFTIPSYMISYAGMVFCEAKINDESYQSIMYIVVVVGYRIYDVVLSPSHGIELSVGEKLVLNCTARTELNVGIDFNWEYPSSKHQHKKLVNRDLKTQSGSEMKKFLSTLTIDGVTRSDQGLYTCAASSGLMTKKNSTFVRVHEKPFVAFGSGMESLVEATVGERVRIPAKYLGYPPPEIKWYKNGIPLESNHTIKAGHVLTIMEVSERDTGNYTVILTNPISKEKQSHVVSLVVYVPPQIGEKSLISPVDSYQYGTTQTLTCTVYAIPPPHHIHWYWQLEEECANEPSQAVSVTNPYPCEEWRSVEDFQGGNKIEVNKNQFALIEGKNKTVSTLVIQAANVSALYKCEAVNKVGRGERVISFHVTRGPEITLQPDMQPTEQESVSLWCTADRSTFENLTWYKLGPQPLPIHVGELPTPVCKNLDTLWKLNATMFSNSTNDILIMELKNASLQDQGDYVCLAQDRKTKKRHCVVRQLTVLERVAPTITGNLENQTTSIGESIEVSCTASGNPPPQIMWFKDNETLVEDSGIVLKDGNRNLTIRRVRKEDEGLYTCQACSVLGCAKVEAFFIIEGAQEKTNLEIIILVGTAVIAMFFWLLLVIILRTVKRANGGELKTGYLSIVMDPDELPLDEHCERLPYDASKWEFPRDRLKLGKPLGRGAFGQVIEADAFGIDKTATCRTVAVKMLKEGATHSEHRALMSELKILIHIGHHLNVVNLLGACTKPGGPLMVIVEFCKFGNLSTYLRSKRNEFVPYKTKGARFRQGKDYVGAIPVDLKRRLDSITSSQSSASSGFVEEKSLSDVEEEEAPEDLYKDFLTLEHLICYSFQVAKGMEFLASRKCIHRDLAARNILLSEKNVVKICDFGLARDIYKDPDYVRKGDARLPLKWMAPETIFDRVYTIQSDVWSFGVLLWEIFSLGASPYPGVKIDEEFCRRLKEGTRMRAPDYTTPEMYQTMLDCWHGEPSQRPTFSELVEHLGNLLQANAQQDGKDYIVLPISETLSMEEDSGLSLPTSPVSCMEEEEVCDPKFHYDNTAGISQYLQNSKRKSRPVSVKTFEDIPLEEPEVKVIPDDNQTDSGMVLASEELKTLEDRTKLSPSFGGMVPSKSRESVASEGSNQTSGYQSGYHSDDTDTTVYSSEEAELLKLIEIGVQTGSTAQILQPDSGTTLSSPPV

Q: For `CCc1ccccc1C(=O)Nc1n[nH]c2c(C)c(F)c(C3C(C#N)=C(C)N(C)C(C)=C3C#N)cc12` [BAY-3827], which % residual kinase activity [1] is on record?
A: 112%

Q: What about the % residual kinase activity [2] of the same compound?
A: 98%

Q: And the % residual kinase activity [3]?
A: 90%

Q: And the % residual kinase activity [4]?
A: 96%

Q: What about the % residual kinase activity [5] of the same compound?
A: 68%

Q: What about the “Cell Proliferation IC50” value (U-251) of the same compound?
A: 20.9 µM

Q: And the % residual kinase activity [6]?
A: 95%
